Measured values: patent publication US20200030342A1, “DEHYDROEPIANDROSTERONE (DHEA) SUPPL[…] FEMALE SEXUAL DESIRE AND FUNCTION IN PRE-[…]” (American Infertility of New York, P.C., priority 2018, published 2020)

Assays:
[1] = tested on: premenopausal infertile women; experiment: Female Sexual Function Index (FSFI) questionnaire before and after DHEA supplementation, observational study; type: in vivo
Procedure: An observational study was conducted in an academically affiliated private fertility center. Patients included 87 premenopausal infertile women, 50 of whom completed the study including the Female Sexual Function Index (FSFI) questionnaires and comprehensive endocrine evaluation before and 4-8 weeks after initiating 25 mg of oral micronized DHEA TID. An example of a FSFI questionnaire is in a FSFI Scoring Appendix at the end of this patent application together with a discussion as to the manner of determining FSFI domain scores and full-scale score, which establish FSFI baselines.
(§1) All patients in the study were asked to complete the self-reported Female Sexual Function Index (FSFI) questionnaire^31 prior to initiation to DHEA supplements and again 4-8 weeks later. The patients' fertility treatments were not affected by their participation in this study, in laboratory investigations, and/or timing of procedures. Patients underwent the same standard endocrine evaluations all patients undergo at the Center for Human Reproduction, including measurement of serum androgen levels: DHEA, DHEAS, total (TT) and free testosterone (FT) before, and 4-8 weeks after, initiating 25 mg of oral DHEA supplementation TID. All here presented hormone levels were obtained by commercial assays (LabCorp, Burlington, N.C.). All androgen levels were measured using high-pressure liquid chromatography/tandem mass spectrometry.
Pearson correlation was used to investigate relationships between FSFI scores and patient demographics, as well as, hormone levels. Comparisons of FSFI scores and endocrine parameters before—and after—DHEA supplementation were made using paired T-tests. Based on starting FSFI scores patients were further subdivided into quartiles. Patient responses before and after DHEA supplementation from those in lowest and highest quartiles were then compared. Groups were compared using a two-sampled T-test or chi-square test. A P-value <0.05 was considered significant. All analyses were conducted using SAS version 9.4 (SAS Institute Inc. Cary, N.C.).
The individual domain scores and full scale (overall) score of the FSFI can be derived from the computational formula outlined in the table below. For individual domain scores, add the scores of the individual items that comprise the domain and multiply the sum by the domain factor (see below). Add the six domain scores to obtain the full scale score. […] Subject scores can be entered in the right-hand colum.

[2] = Endocrine evaluation: serum hormone levels before and after DHEA supplementation; type: in vivo, women
Text: as §1
The measurement procedures for measuring serum androgen and FSH are conventional. The formulation for an oral dosage of DHEA is conventional.

[3] = Center's experience with DHEA treatment of infertile patients: testosterone levels in response to DHEA or transdermal testosterone; type: in vivo, women
Text: One purpose of DHEA supplementation is raising testosterone levels. In other words, the biologically active hormone is testosterone. Its application, however, has more side effects. But some patients have a hard time converting DHEA to testosterone [Shohat-Tal A, Sen A, Barad D H, Kushnir V, Gleicher N. Genetics of androgen metabolism in women with infertility and hypoandrogenism. Nat Rev Endocrinol 2015; 11(7):429-441] and, therefore, must be treated directly with testosterone. The testosterone dosage is 0.05 mg transdermal by pump between once to 2-times per day for the same time period that DHEA supplementation dosages are taken. The peripheral testosterone levels and SHBG in blood are monitored and adjusted accordingly. Sex hormone binding globulin (SHBG) is a protein that is produced by the liver and binds tightly to the hormones testosterone, dihydrotestosterone (DHT), and estradiol (an estrogen). If patients require testosterone directly, the DHEA supplementation is still continued.

[4] = Baseline FSFI Score < 25.7, N = 12
[5] = Baseline FSFI Score ≥ 31.9, N = 13
[6] = lowest starting FSFI score quartile (<25.7)
[7] = whole group N=50, DHEA 25 mg TID 4-8 weeks, mean change
[8] = whole group N=50, DHEA 25 mg TID 4-8 weeks, mean change of domain score

Compound: C[C@]12CC[C@H](O)CC1=CC[C@@H]1[C@@H]2CC[C@]2(C)C(=O)CC[C@@H]12 [DHEA, dehydroepiandrosterone]
- Δ Arousal [1, 4]: 1.3±1.7
- Δ Desire [1, 4]: 1.0±0.8
- Δ Lubrication [1, 4]: 0.8±2.3
- Δ Orgasm [1, 4]: 1.0±2.3
- Δ Pain [1, 4]: 0.9±2.3
- Δ Satisfaction [1, 4]: 0.9±1.3
- Δ Arousal [1, 5]: −0.2 ± 0.5
- Δ Desire [1, 5]: −0.1 ± 0.6
- Δ Lubrication [1, 5]: −0.1 ± 0.6
- Δ Orgasm [1, 5]: −0.5 ± 1.1
- Δ Pain [1, 5]: −0.1 ± 0.4
- Δ Satisfaction [1, 5]: 0.0 ± 0.7
- Δ FSFI Score ([1]; highest starting FSFI quartile, Baseline FSFI Score ≥ 31.9, N = 13, DHEA 25 mg TID 4-8 weeks): −1.0 ± 2.7
- Δ FSFI Score ([1]; lowest starting FSFI quartile, Baseline FSFI Score < 25.7, N = 12, DHEA 25 mg TID 4-8 weeks): 6.1±8.0
- Improvement in domain arousal [1, 6]: 46%
- Improvement in domain desire [1, 6]: 40%
- Improvement in domain lubrication [1, 6]: 33%
- Improvement in domain orgasm [1, 6]: 54%
- Improvement in domain pain [1, 6]: 25%
- Improvement in domain satisfaction [1, 6]: 24%
- Increase in total FSFI score [1, 6]: 34%
- Δ Arousal: Confidence [1, 7]: 0.4
- Δ Arousal: Frequency [1, 7]: 0.3
- Δ Arousal: Level [1, 7]: 0.4
- Δ Arousal: Satisfaction [1, 7]: 0.4
- Δ Desire: Frequency [1, 7]: 0.5
- Δ Desire: Level [1, 7]: 0.5
- Δ Lubrication: Difficulty (first line) [1, 7]: 0.3
- Δ Lubrication: Difficulty (second line, after Maintaining) [1, 7]: 0.2
- Δ Lubrication: Frequency [1, 7]: 0.3
- Δ Lubrication: Maintaining [1, 7]: 0.3
- Δ Orgasm: Difficulty [1, 7]: 0.1
- Δ Orgasm: Frequency [1, 7]: 0.0
- Δ Orgasm: Satisfaction [1, 7]: 0.1
- Δ Pain: During [1, 7]: 0.3
- Δ Pain: Following [1, 7]: 0.2
- Δ Pain: Level [1, 7]: 0.0
- Δ Satisfaction: Closeness [1, 7]: 0.3
- Δ Satisfaction: Overall [1, 7]: 0.3
- Δ Satisfaction: Relationship [1, 7]: 0.2
- Δ Arousal [1, 8]: 0.5
- Δ Desire [1, 8]: 0.6
- Δ Lubrication [1, 8]: 0.4
- Δ Orgasm [1, 8]: 0.1
- Δ Pain [1, 8]: 0.2
- Δ Satisfaction [1, 8]: 0.3
- Δ FSFI Score ([1]; whole group, 50 premenopausal infertile women, oral micronized DHEA 25 mg TID, before vs 4-8 weeks after, mean): 2.0
- Domain score for arousal, increase ([1]; whole study group): 12%
- Domain score for desire, increase ([1]; whole study group): 17%
- Domain score for orgasm, change ([1]; whole study group): no significant changes
- Domain score for pain, change ([1]; whole study group): no significant changes
- Domain score for satisfaction, change ([1]; whole study group): no significant changes
- Domain score for lubrication, trend towards improvement ([1]; whole study group, P=0.0551): 8%
- FSFI score increase ([1]; whole study group, following DHEA supplementation): 7%
- FSFI score after DHEA supplementation ([1]; whole study group, from baseline 27.2±6.9): 29.2±5.6
- Δ Hormone: AMH [2, 4]: 0.0 ± 0.6 ng/mL
- Δ Hormone: Cortisol [2, 4]: 2.5 ± 1.6 µg/dL
- Δ Hormone: DHEA [2, 4]: 291.0 ± 227.7 ng/dL
- Δ Hormone: FSH [2, 4]: −3.6 ± 2.6 mIU/mL
- Δ Hormone: Free Testosterone [2, 4]: 1.8 ± 1.3 pg/mL
- Δ Hormone: SHBG [2, 4]: -15.8 ± 41.1 nmol/L
- Δ Hormone: Total Testosterone [2, 4]: 16.4 ± 18.5 ng/dL
- Δ Hormone: AMH [2, 5]: 0.1 ± 0.6 ng/mL
- Δ Hormone: Cortisol [2, 5]: -0.4 ± 5.5 µg/dL
- Δ Hormone: DHEA [2, 5]: 275.7 ± 186.6 ng/dL
- Δ Hormone: FSH [2, 5]: −1.6 ± 3.5 mIU/mL
- Δ Hormone: Free Testosterone [2, 5]: 0.5 ± 1.4 pg/mL
- Δ Hormone: SHBG [2, 5]: -21.0 ± 51.6 nmol/L
- Δ Hormone: Total Testosterone [2, 5]: 11.8 ± 18.6 ng/dL
- Δ Hormone: AMH [2, 7]: 0.0 ng/mL
- Δ Hormone: Cortisol [2, 7]: 1.3 µg/dL
- Δ Hormone: FSH [2, 7]: −2.6 mIU/mL
- Δ Hormone: Free Testosterone [2, 7]: 1.4 pg/mL
- Δ Hormone: SHBG [2, 7]: -24.0 nmol/L
- Δ Hormone: Total Testosterone [2, 7]: 15.1 ng/dL
- Δ Hormone: DHEA ([2]; whole group N=50, DHEA 25 mg TID 4-8 weeks, mean change of serum level): 235.1 ng/dL
- AMH levels, change ([2]; whole study group): no change
- Cortisol levels, change ([2]; whole study group): no change
- FSH levels, decrease from baseline ([2]; whole study group, baseline 10.3±5.4 mIU/mL): 2.6±4.4 mIU/mL
- SHBG, decrease from baseline ([2]; whole study group, baseline 92.7±43.2 nmol/L): 24.0 ± 39.4 nmol/L
- All serum androgen levels (DHEA, DHEAS, TT, FT), change from baseline ([2]; whole study group, each P<0.0001): increased
- Patients who do not raise their testosterone levels in response to DHEA supplementation ([3]; infertile patients overall, a little more among African-descent women): less than 5%

Compound: C[C@]12CC[C@H]3[C@@H](CCC4=CC(=O)CC[C@@]43C)[C@@H]1CC[C@@H]2O [testosterone]
- Testosterone levels achieved in patients not responding to DHEA ([3]; 0.05 mg transdermal by pump once to 2-times per day, same time period): very similar testosterone levels are achieved
